According to patent US8669249B2, “Poly (ADP-ribose) polymerase (PARP) inhibitors” (Takeda Pharmaceutical Company Limited, priority 2009, dated 2014):

Experiments:
[1] = target: T1, catalytic domain of Human PARP (Homo sapiens, UniProt P09874); assay: Biacore surface plasmon resonance affinity assay; assay type: binding; details: pKD=-log10 KD, KD in mol/L; Biacore T100, 25° C.; read-out: pKD (converted)
T1 construct: The catalytic domain of Human PARP was cloned and prepared; made in house
In short: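 Binding at 25° C on Biacore T100: 1 min compound association then 5 min dissociation (50 μL/min) over immobilized PARP catalytic domain, buffer HBS-P plus 1% DMSO, 0.5 mM TCEP, 5 mM MgCl2, 2-fold dilution series. KD derived as koff/kon from fitted association and dissociation phases.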

[2] = system: Jurkat cell line; assay: PARP cellular chemopotentiation assay (MTS, with/without TMZ); assay type: cell-based; details: Chemopotentiation factor: ratio of EC50 values of Jurkat cells co-treated without and with 100 μM TMZ; 96 hours
Method: Potentiation Factor (PF50) Determination from PARP Cellular Chemopotentiation Assay
Jurkat cell line was maintained according to the supplier (American Type Culture Collection (Rockville, Md.)). Cells were seeded in 96-well tissue culture microplates at 10,000 cells per well and cultured for 24 hours prior to addition of compounds, TMZ (Temozolomide) or DMSO (dimethylsulfoxide) vehicle. After 96 hours of treatment, the conversion of MTS ([3-(4,5-dimethylthiazol-2-yl)-5-(3-carboxymethoxyphenyl)-2-(4-sulfophenyl)-2H-tetrazolium, inner salt], Promega, Madison, Wis.) by metabolically active cells was determined through measuring the OD490 nm with a Spectramax microplate reader (Molecular Devices, San Diego, Calif.). To generate concentration-response curves, cells were treated in duplicate with a range of serial compound dilutions (final DMSO concentration was 0.5%) in the absence or presence of 100 μM TMZ chemoreagent. The percentage of viable cells per well was calculated by correction for background and normalizing against DMSO-treated cells. EC50 values for inhibition of cell viability were calculated using XLfit4 MicroSoft Excel curve-fitting software. Chemopotentiation factor PF50 was calculated as the ratio of EC50 values of cells co-treated without and with TMZ, respectively.

[3] = target: T2, PARP (Homo sapiens, UniProt P09874); assay: PARP ELISA (ELISA-based colorimetric PARP/Apoptosis Assay kit, Trevigen); assay type: biochemical; details: pIC50=-log10 IC50, IC50 in mol/L; inhibition of PARP catalytic activity
T2 construct: purchased Trevigen 4684-096-K HT (kit); 4684-096-01 (PARP enzyme)
T2 sequence (P09874 whole entry): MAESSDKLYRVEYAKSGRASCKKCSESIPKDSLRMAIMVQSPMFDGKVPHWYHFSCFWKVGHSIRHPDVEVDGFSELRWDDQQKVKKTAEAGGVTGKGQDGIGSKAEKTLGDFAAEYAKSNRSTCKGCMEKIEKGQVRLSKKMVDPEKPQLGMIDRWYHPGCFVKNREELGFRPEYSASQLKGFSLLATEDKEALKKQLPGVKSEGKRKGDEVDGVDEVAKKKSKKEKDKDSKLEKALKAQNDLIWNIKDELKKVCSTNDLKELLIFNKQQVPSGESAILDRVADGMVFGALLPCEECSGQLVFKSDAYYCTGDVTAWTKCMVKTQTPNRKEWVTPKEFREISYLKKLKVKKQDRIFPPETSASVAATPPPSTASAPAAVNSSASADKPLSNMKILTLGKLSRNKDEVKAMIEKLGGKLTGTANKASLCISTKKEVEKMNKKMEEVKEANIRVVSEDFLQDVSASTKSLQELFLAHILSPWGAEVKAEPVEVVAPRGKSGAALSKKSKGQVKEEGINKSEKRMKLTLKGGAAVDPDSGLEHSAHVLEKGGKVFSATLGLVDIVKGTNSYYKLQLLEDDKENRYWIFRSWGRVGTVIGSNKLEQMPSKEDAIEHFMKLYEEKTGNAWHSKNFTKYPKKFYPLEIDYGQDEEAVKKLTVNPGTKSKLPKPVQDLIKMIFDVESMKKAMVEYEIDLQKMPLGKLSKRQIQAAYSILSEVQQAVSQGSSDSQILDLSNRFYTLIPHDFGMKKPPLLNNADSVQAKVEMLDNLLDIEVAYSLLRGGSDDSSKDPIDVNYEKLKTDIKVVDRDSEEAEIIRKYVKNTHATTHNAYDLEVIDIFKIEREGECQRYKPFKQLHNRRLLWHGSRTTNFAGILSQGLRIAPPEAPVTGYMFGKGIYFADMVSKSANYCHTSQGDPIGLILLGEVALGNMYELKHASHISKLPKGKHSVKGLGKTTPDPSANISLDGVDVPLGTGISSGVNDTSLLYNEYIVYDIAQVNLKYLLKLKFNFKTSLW
Method: Inhibition Constant (IC50) from PARP ELISA
After 10 minutes of catalysis the reaction is quenched by solvent aspiration followed by irrigation of the assay wells 4 times with phosphate buffered saline (PBS) containing 0.1% t-Octylphenoxypolyethoxyethanol (Triton® X-100). Mouse Anti-poly ADP ribose (PAR) monoclonal antibody, goat antimouse immunoglobulin G (IgG)-horse radish peroxidase (HRP) conjugate and HRP substrate are added according to the manufacture's specifications to generate a colorimetric signal proportional to PARP catalytic activity.

T1 sequence (P09874 788-1014 limits assumed): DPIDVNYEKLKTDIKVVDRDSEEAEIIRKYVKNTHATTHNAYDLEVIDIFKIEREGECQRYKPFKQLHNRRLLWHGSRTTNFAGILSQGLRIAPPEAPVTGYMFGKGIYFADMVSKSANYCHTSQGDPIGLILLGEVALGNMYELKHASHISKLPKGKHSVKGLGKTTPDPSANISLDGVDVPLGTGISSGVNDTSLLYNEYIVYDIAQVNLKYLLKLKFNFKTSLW

Row | Compound | Kd [1] | PF50 [2] | IC50 [3]
1 | C[C@@H]1Oc2ccc(CN3CCC(c4ccccc4)CC3)cc2NC1=O [Compound 46, (S)-2-Methyl-6-((4-phenylpiperidin-1-yl)methyl)-2H-benzo[b][1,4]oxazin-3(4H)-one] | 12.6 to 100 nM | 1.0-1.9 | –
2 | CC1Oc2ccc(CN3CCC(c4nc5ccccc5[nH]4)CC3)cc2NC1=O (centres unmarked) [Compound 48, 6-((4-(1H-Benzo[d]imidazol-2-yl)piperidin-1-yl)methyl)-2-methyl-2H-benzo[b][1,4]oxazin-3(4H)-one] | 126 to 1000 nM | 1.0-1.9 | –
3 | CC1Oc2ccc(CN3CCN(c4ccc([N+](=O)[O-])cc4)CC3)cc2NC1=O (centres unmarked) [Compound 49, 2-Methyl-6-((4-(4-nitrophenyl)piperazin-1-yl)methyl)-2H-benzo[b][1,4]oxazin-3(4H)-one] | ≤ 10 nM | ≦0.9 | –
4 | CC1Oc2ccc(CN(C)Cc3ccc(Cl)cc3)cc2NC1=O (centres unmarked) [Compound 70, 6-(((4-Chlorobenzyl)(methyl)amino)methyl)-2-methyl-2H-benzo[b][1,4]oxazin-3(4H)-one] | – | 1.0-1.9 | –
5 | CCOC(=O)c1ccc(N2CCN(Cc3cc4c(c(OC)c3)OC(C)C(=O)N4)CC2)cc1 (centres unmarked) [Compound 159, Ethyl 4-(4-((8-methoxy-2-methyl-3-oxo-3,4-dihydro-2H-benzo[b][1,4]oxazin-6-yl)methyl)piperazin-1-yl)benzoate] | < 31.6 nM | – | ≥ 126 nM
6 | COc1cc(CN2CCN(c3ccc(C(=O)O)cc3)CC2)cc2c1OC(C)C(=O)N2 (centres unmarked) [Compound 160, 4-(4-((8-Methoxy-2-methyl-3-oxo-3,4-dihydro-2H-benzo[b][1,4]oxazin-6-yl)methyl)piperazin-1-yl)benzoic acid] | 126 to 1000 nM | – | ≥ 126 nM
7 | CC1Oc2ccc(CN3CCN(c4ccc(S(C)(=O)=O)cc4)CC3)cc2NC1=O (centres unmarked) [Compound 227, 2-Methyl-6-((4-(4-(methylsulfonyl)phenyl)piperazin-1-yl)methyl)-2H-benzo[b][1,4]oxazin-3(4H)-one] | – | 1.0-1.9 | –
8 | CC1Oc2ccc(CN3CCN(c4ccc(C(=O)O)cn4)CC3)cc2NC1=O (centres unmarked) [Compound 233, 6-(4-((2-Methyl-3-oxo-3,4-dihydro-2H-benzo[b][1,4]oxazin-6-yl)methyl)piperazin-1-yl)nicotinic acid] | 1260 to 10000 nM | – | ≥ 126 nM
9 | CC1Oc2ccc(CN3Cc4ccccc4C3)cc2NC1=O (centres unmarked) [Compound 239, 6-(Isoindolin-2-ylmethyl)-2-methyl-2H-benzo[b][1,4]oxazin-3(4H)-one] | 126 to 1000 nM | – | ≥ 126 nM
10 | CC1Oc2ccc(CN3Cc4ccc([N+](=O)[O-])cc4C3)cc2NC1=O (centres unmarked) [Compound 240, 2-Methyl-6-((5-nitroisoindolin-2-yl)methyl)-2H-benzo[b][1,4]oxazin-3(4H)-one] | 126 to 1000 nM | – | ≥ 126 nM
11 | Cc1cc(CN2CC=C(c3ccc(Cl)cc3)CC2)cc2c1OC(C)C(=O)N2 (centres unmarked) [Compound 263, 6-((4-(4-Chlorophenyl)-5,6-dihydropyridin-1(2H)-yl)methyl)-2,8-dimethyl-2H-benzo[b][1,4]oxazin-3(4H)-one] | > 10000 nM | – | ≥ 126 nM
12 | CC1Oc2c(F)cc(CN3CC=C(c4ccc(Cl)cc4)CC3)cc2NC1=O (centres unmarked) [Compound 268, 6-((4-(4-Chlorophenyl)-5,6-dihydropyridin-1(2H)-yl)methyl)-8-fluoro-2-methyl-2H-benzo[b][1,4]oxazin-3(4H)-one] | > 10000 nM | – | ≥ 126 nM
13 | CCOC(=O)c1ccc(N2CCN(Cc3cc(F)c4c(c3)NC(=O)C(C)O4)CC2)cc1 (centres unmarked) [Compound 269, Ethyl 4-(4-((8-fluoro-2-methyl-3-oxo-3,4-dihydro-2H-benzo[b][1,4]oxazin-6-yl)methyl)piperazin-1-yl)benzoate] | 126 to 1000 nM | – | ≥ 126 nM
14 | CC1Oc2c(F)cc(CN3CCN(c4ccc(C(=O)O)cc4)CC3)cc2NC1=O (centres unmarked) [Compound 270, 4-(4-((8-Fluoro-2-methyl-3-oxo-3,4-dihydro-2H-benzo[b][1,4]oxazin-6-yl)methyl)piperazin-1-yl)benzoic acid] | 1260 to 10000 nM | – | ≥ 126 nM
15 | CC1Oc2cc(F)c(CN3CCN(c4ccc(C(=O)O)cc4)CC3)cc2NC1=O (centres unmarked) [Compound 334, 4-(4-((7-Fluoro-2-methyl-3-oxo-3,4-dihydro-2H-benzo[b][1,4]oxazin-6-yl)methyl)piperazin-1-yl)benzoic acid] | – | – | > 200 nM
16 | CCNC(=O)c1ccc(N2CCN(Cc3cc4c(c(-c5ccccc5)c3)OC(C)C(=O)N4)CC2)cc1 (centres unmarked) [Compound 349, N-Ethyl-4-(4-((2-methyl-3-oxo-8-phenyl-3,4-dihydro-2H-benzo[b][1,4]oxazin-6-yl)methyl)piperazin-1-yl)benzamide] | – | – | > 200 nM
17 | C=CCc1cc(CN2CCN(c3ccc(C(=O)NCC)cc3)CC2)cc2c1OC(C)C(=O)N2 (centres unmarked) [Compound 356, 4-(4-((8-Allyl-2-methyl-3-oxo-3,4-dihydro-2H-benzo[b][1,4]oxazin-6-yl)methyl)piperazin-1-yl)-N-ethylbenzamide] | – | – | 79.4 nM
18 | CC(C)(C)OC(=O)N1CCN(Cc2ccc3c(c2)NC(=O)CO3)CC1 [Compound 357, tert-Butyl 4-((3-oxo-3,4-dihydro-2H-benzo[b][1,4]oxazin-6-yl)methyl)piperazine-1-carboxylate] | – | – | > 200 nM
19 | COc1cc(CN2CCN(c3ccc(C(=O)NC4CC4)cc3C)CC2)cc2c1OC(C)C(=O)N2 (centres unmarked) [Compound 364, N-Cyclopropyl-4-{4-[(8-methoxy-2-methyl-3-oxo-3,4-dihydro-2H-1,4-benzoxazin-6-yl)methyl]piperazin-1-yl}-3-methylbenzamide] | – | 4365 | –
20 | CC1Oc2ccc(CN3CCN(c4ccc(C(=O)N(C)C)cc4)CC3)cc2NC1=O (centres unmarked) [Compound 378, N,N-Dimethyl-4-(4-((2-methyl-3-oxo-3,4-dihydro-2H-benzo[b][1,4]oxazin-6-yl)methyl)piperazin-1-yl)benzamide] | – | – | > 200 nM
21 | CCN(C)C(=O)c1ccc(N2CCN(Cc3ccc4c(c3)NC(=O)C(C)O4)CC2)cc1 (centres unmarked) [Compound 379, N-Ethyl-N-methyl-4-(4-((2-methyl-3-oxo-3,4-dihydro-2H-benzo[b][1,4]oxazin-6-yl)methyl)piperazin-1-yl)benzamide] | – | – | > 200 nM
22 | CC(C)NC(=O)c1ccc(N2CCC(Cc3ccc4c(c3)NC(=O)C(C)O4)CC2)cc1 (centres unmarked) [Compound 391, N-Isopropyl-4-(4-((2-methyl-3-oxo-3,4-dihydro-2I-benzo[b][1,4]oxazin-6-yl)methyl)piperidin-1-yl)benzamide] | – | – | > 200 nM
23 | CC1Oc2ccc(CC3CCN(c4ccc(C(=O)NC5CC5)cc4)CC3)cc2NC1=O (centres unmarked) [Compound 392, N-Cyclopropyl-4-(4-((2-methyl-3-oxo-3,4-dihydro-2I-benzo[b][1,4]oxazin-6-yl)methyl)piperidin-1-yl)benzamide] | – | – | > 200 nM
24 | CCNC(=O)c1ccc(N2CCC(Cc3ccc4c(c3)NC(=O)C(C)O4)CC2)cc1 (centres unmarked) [Compound 393, N-Ethyl-4-(4-((2-methyl-3-oxo-3,4-dihydro-2H-benzo[b][1,4]oxazin-6-yl)methyl)piperidin-1-yl)benzamide] | – | – | > 200 nM
25 | CCOC(=O)c1ccc(N2CCC(Oc3ccc4c(c3)NC(=O)C(C)O4)CC2)cc1 (centres unmarked) [Compound 394, Ethyl 4-(4-(2-methyl-3-oxo-3,4-dihydro-2H-benzo[b][1,4]oxazin-6-yloxy)piperidin-1-yl)benzoate] | – | – | > 200 nM
26 | CNC(=O)c1ccc(N2CCC(Oc3ccc4c(c3)NC(=O)C(C)O4)CC2)cc1 (centres unmarked) [Compound 395, N-Methyl-4-(4-(2-methyl-3-oxo-3,4-dihydro-2H-benzo[b][1,4]oxazin-6-yloxy)piperidin-1-yl)benzamide] | – | – | > 200 nM
27 | CCNC(=O)c1ccc(N2CCC(Oc3ccc4c(c3)NC(=O)C(C)O4)CC2)cc1 (centres unmarked) [Compound 396, N-Ethyl-4-(4-(2-methyl-3-oxo-3,4-dihydro-2H-benzo[b][1,4]oxazin-6-yloxy)piperidin-1-yl)benzamide] | – | – | > 200 nM
28 | CC1Oc2ccc(OC3CCN(c4ccc(C(=O)NC5CC5)cc4)CC3)cc2NC1=O (centres unmarked) [Compound 397, N-Cyclopropyl-4-(4-(2-methyl-3-oxo-3,4-dihydro-2H-benzo[b][1,4]oxazin-6-yloxy)piperidin-1-yl)benzamide] | – | – | > 200 nM
29 | CCNC(=O)c1ccc(N2CCN(Cc3cc4c(c(OC(F)F)c3)OC(C)C(=O)N4)CC2)c(Cl)c1 (centres unmarked) [Compound 405, 3-Chloro-4-(4-((8-(difluoromethoxy)-2-methyl-3-oxo-3,4-dihydro-2H-benzo[b][1,4]oxazin-6-yl)methyl)piperazin-1-yl)-N-ethylbenzamide] | – | 5.3 | –
